According to patent publication US7504401B2, “Anti-cancer agents and uses thereof” (Locus Pharmaceuticals, Inc., priority 2003, dated 2009):

Experiments:
Type in all cases: cell-based
[1] = system: MCF-7 breast cancer cells; experiment: Cell cycle assay, flow cytometry with propidium iodide, Example 126; settings: MCF-7 cells, 24 h, 0.5% FCS, Table 2
Description: (§1) MCF-7 breast cancer cells and Jurkat T-cell leukemic cells were grown (and maintained) in EMEM and RPMI media, respectively, containing 10% fetal calf serum.
Cells were allowed to adhere for 24 hrs. After adherence, cell culture media was changed to that containing 0.5% FCS. Thirty minutes post-media change, test compounds were added at a concentration of 1 μM. Twenty-fours after test agent addition, cells were analyzed for cell cycle status as described below.
(§2) Cell cycle status was analyzed by flow cytometry. Briefly, cells were collected and washed with FACs buffer (Pharmingen) and resuspended and fixed in 1 mL of 80% ethanol for 1 hr. Cells were washed with FACs buffer and resuspended in propidium iodide(PI)/RNase staining buffer (Pharmingen). PI is a fluorescent dye that labels nucleic acids such as DNA. The fluorescence within a cell (in the presence of PI) is proportional to the amount of DNA within a cell. The cell content of DNA is an indices of status in the cell cycle. […] Cells in the S phase have DNA content that lies between these extremes.
(§3) For testing of cell cycle effects of test agents the percentage of cells within the G1 and G2/M phase were measured.

[2] = system: Jurkat T-cell leukemic cells; experiment: as above; settings: 24 h, 0.5% serum, Table 2
Description: as §1
Test agents were added a concentration of 0.1 μM. Twenty-fours after test agent addition, cells were analyzed for cell cycle status as described below.
as §2, §3

Hela cells = experiment: Cell viability assay (WST-1 colorimetric mitochondrial reduction), Example 125; settings: Homo sapiens, 0.5% fetal calf serum, 48-72 hrs
Description: Jurkat and Hela cells were cultured in RPMI and EMEM media, respectively, containing 0.5% fetal calf serum. Cells were plated in a volume of 100 μL in a 96 well format. Test compounds were included in the culture media at concentrations ranging from 1 nM to 10 μM for a period of 48-72 hrs. […] Briefly, 10 μL of WST-1 reagent was included in the culture well for a period of 1 to 4 hrs. The WST-1 reaction was read on a multiwell spectrophotometer as the difference in the absorbance between 450 nm and 600 nm (baseline). Absorbance was proportional to the number of living cells in the culture well. Concentration response curves and IC50 values were calculated using GraphPAD Prism graphing and curve fitting program.

## [O-][n+]1cccc(Nc2cc(O)cc(-c3cccc4[nH]ccc34)c2)c1 [3-(1H-Indol-4-yl)-5-(1-oxy-pyridin-3-ylamino)-phenol]
[1]
  MCF-7 G2/M Block 1 μM: Y (Y indicates a 50% or greater increase in the number of cells in the G2/M phase, as compared to control)
[2]
  Jurkat G2/M Block 0.1 μM: Y (Y indicates a 50% or greater increase in the number of cells in the G2/M phase, as compared to control)

## CC(=O)N(c1cccnc1)c1cccc(-c2cccc3[nH]ccc23)c1 [N-[3-(1H-Indol-4-yl)-phenyl]-N-pyridin-3-yl-acetamide]
Hela cells
  IC50: 1 to 30 µM
